#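 Where inhibition never reached the appropriate level, the endpoint shown equals the highest concentration tested. Otherwise, values were interpolated linearly from a five-concentration, 48-hour dose response in 96-well plates. At the GI50, growth is halved. TGI marks complete inhibition of growth.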
# Assays:
# Test in all cases: NCI-60 cell line screen, 48 h
# NCI-H522 lung = system: NCI-H522 lung
# CCRF-CEM leukemia = system: CCRF-CEM leukemia
# RXF 393 renal = system: RXF 393 renal
# M14 melanoma = system: M14 melanoma
# OVCAR-8 ovarian = system: OVCAR-8 ovarian
# CAKI-1 renal = system: CAKI-1 renal
# U251 CNS = system: U251 CNS
# ACHN renal = system: ACHN renal
# SF-539 CNS = system: SF-539 CNS
# A498 renal = system: A498 renal
# RXF-631 renal = system: RXF-631 renal
# SK-MEL-5 melanoma = system: SK-MEL-5 melanoma
# HL-60(TB) leukemia = system: HL-60(TB) leukemia
# A549 NSCLC = system: A549 NSCLC
# OVCAR-3 ovarian = system: OVCAR-3 ovarian
# NCI-H226 lung = system: NCI-H226 lung
# UO-31 renal = system: UO-31 renal
# XF 498 CNS = system: XF 498 CNS
# IGROV1 ovarian = system: IGROV1 ovarian
# SNB-19 CNS = system: SNB-19 CNS
# NCI-H23 lung = system: NCI-H23 lung
# SR leukemia = system: SR leukemia
# SK-MEL-2 melanoma = system: SK-MEL-2 melanoma
# 786-0 renal = system: 786-0 renal
# HCT-15 colon = system: HCT-15 colon
# SF-295 CNS = system: SF-295 CNS
# SK-MEL-28 melanoma = system: SK-MEL-28 melanoma
# KM20L2 colon = system: KM20L2 colon
# OVCAR-4 ovarian = system: OVCAR-4 ovarian
# DLD-1 colon = system: DLD-1 colon
# LXFL 529 NSCLC = system: LXFL 529 NSCLC
# HOP-62 NSCLC = system: HOP-62 NSCLC
# EKVX NSCLC = system: EKVX NSCLC
# UACC-257 melanoma = system: UACC-257 melanoma
# SK-OV-3 ovarian = system: SK-OV-3 ovarian
# COLO 205 colon = system: COLO 205 colon
# NCI-H460 lung = system: NCI-H460 lung
# HT29 colon = system: HT29 colon
# SNB-78 CNS = system: SNB-78 CNS
# HOP-18 NSCLC = system: HOP-18 NSCLC
# MOLT-4 leukemia = system: MOLT-4 leukemia
# RPMI-8226 leukemia = system: RPMI-8226 leukemia
# TK-10 renal = system: TK-10 renal
# M19-MEL melanoma = system: M19-MEL melanoma
# KM12 colon = system: KM12 colon
# SW-620 colon = system: SW-620 colon
# UACC-62 melanoma = system: UACC-62 melanoma
# LOX IMVI melanoma = system: LOX IMVI melanoma
# SNB-75 CNS = system: SNB-75 CNS
# OVCAR-5 ovarian = system: OVCAR-5 ovarian
# MALME-3M melanoma = system: MALME-3M melanoma
# SN12C renal = system: SN12C renal
# K-562 leukemia = system: K-562 leukemia
# DMS 114 small cell lung = system: DMS 114 small cell lung
# SF-268 CNS = system: SF-268 CNS
# HCT-116 colon = system: HCT-116 colon
# HCC-2998 colon = system: HCC-2998 colon
# HOP-92 NSCLC = system: HOP-92 NSCLC
# DMS 273 small cell lung = system: DMS 273 small cell lung
compound,measurement,setting,value
CC1(C)CC(=O)C(C(=O)C(=O)NC2=C(Cl)C(=O)c3ccccc3C2=O)C(=O)C1,TGI,NCI-H522 lung,91600 nM
same,TGI,CCRF-CEM leukemia,> 100000 nM
same,TGI,RXF 393 renal,> 100000 nM
same,TGI,M14 melanoma,> 100000 nM
same,TGI,OVCAR-8 ovarian,> 100000 nM
same,TGI,CAKI-1 renal,> 100000 nM
same,TGI,U251 CNS,> 100000 nM
same,TGI,ACHN renal,> 100000 nM
same,TGI,SF-539 CNS,> 100000 nM
same,TGI,A498 renal,> 100000 nM
same,TGI,RXF-631 renal,> 100000 nM
same,TGI,SK-MEL-5 melanoma,> 100000 nM
same,TGI,HL-60(TB) leukemia,47200 nM
same,TGI,A549 NSCLC,> 100000 nM
same,TGI,OVCAR-3 ovarian,> 100000 nM
same,TGI,NCI-H226 lung,> 100000 nM
same,TGI,UO-31 renal,> 100000 nM
same,TGI,XF 498 CNS,> 100000 nM
same,TGI,IGROV1 ovarian,> 100000 nM
same,TGI,SNB-19 CNS,> 100000 nM
same,TGI,NCI-H23 lung,> 100000 nM
same,TGI,SR leukemia,> 100000 nM
same,TGI,SK-MEL-2 melanoma,> 100000 nM
same,TGI,786-0 renal,> 100000 nM
same,TGI,HCT-15 colon,> 100000 nM
same,TGI,SF-295 CNS,> 100000 nM
same,TGI,SK-MEL-28 melanoma,> 100000 nM
same,TGI,KM20L2 colon,> 100000 nM
same,TGI,OVCAR-4 ovarian,> 100000 nM
same,TGI,DLD-1 colon,> 100000 nM
same,TGI,LXFL 529 NSCLC,> 100000 nM
same,TGI,HOP-62 NSCLC,> 100000 nM
same,TGI,EKVX NSCLC,> 100000 nM
same,TGI,UACC-257 melanoma,> 100000 nM
same,TGI,SK-OV-3 ovarian,> 100000 nM
same,TGI,COLO 205 colon,> 100000 nM
same,TGI,NCI-H460 lung,> 100000 nM
same,TGI,HT29 colon,> 100000 nM
same,TGI,SNB-78 CNS,> 100000 nM
same,TGI,HOP-18 NSCLC,> 100000 nM
same,TGI,MOLT-4 leukemia,94400 nM
same,TGI,RPMI-8226 leukemia,> 100000 nM
same,TGI,TK-10 renal,> 100000 nM
same,TGI,M19-MEL melanoma,> 100000 nM
same,TGI,KM12 colon,> 100000 nM
same,TGI,SW-620 colon,> 100000 nM
same,TGI,UACC-62 melanoma,> 100000 nM
same,TGI,LOX IMVI melanoma,> 100000 nM
same,TGI,SNB-75 CNS,> 100000 nM
same,TGI,OVCAR-5 ovarian,> 100000 nM
same,TGI,MALME-3M melanoma,> 100000 nM
same,TGI,SN12C renal,> 100000 nM
same,TGI,K-562 leukemia,> 100000 nM
same,TGI,DMS 114 small cell lung,> 100000 nM
same,TGI,SF-268 CNS,> 100000 nM
same,TGI,HCT-116 colon,> 100000 nM
same,TGI,HCC-2998 colon,> 100000 nM
CC[C@@]1(O)C(=O)OCc2c1cc1n(c2=O)Cc2cc3c([N+](=O)[O-])c(OC)ccc3nc2-1,GI50,NCI-H522 lung,71.4 nM
same,TGI,NCI-H522 lung,2160 nM
same,GI50,CCRF-CEM leukemia,< 10 nM
same,TGI,CCRF-CEM leukemia,34.9 nM
same,GI50,RXF 393 renal,120 nM
same,TGI,RXF 393 renal,831 nM
same,GI50,M14 melanoma,44.5 nM
same,TGI,M14 melanoma,635 nM
same,GI50,OVCAR-8 ovarian,103 nM
same,TGI,OVCAR-8 ovarian,19000 nM
same,GI50,CAKI-1 renal,17.2 nM
same,TGI,CAKI-1 renal,582 nM
same,GI50,U251 CNS,< 10 nM
same,TGI,U251 CNS,230 nM
same,GI50,ACHN renal,< 10 nM
same,TGI,ACHN renal,64.8 nM
same,GI50,SF-539 CNS,< 12.2 nM
same,TGI,SF-539 CNS,121 nM
same,GI50,A498 renal,184 nM
same,TGI,A498 renal,855 nM
same,GI50,RXF-631 renal,311 nM
same,TGI,RXF-631 renal,4580 nM
same,GI50,HOP-92 NSCLC,375 nM
same,TGI,HOP-92 NSCLC,2940 nM
same,GI50,SK-MEL-5 melanoma,119 nM
same,TGI,SK-MEL-5 melanoma,285 nM
same,GI50,HL-60(TB) leukemia,23.6 nM
same,TGI,HL-60(TB) leukemia,196 nM
same,GI50,A549 NSCLC,34.3 nM
same,TGI,A549 NSCLC,2610 nM
same,GI50,OVCAR-3 ovarian,424 nM
same,TGI,OVCAR-3 ovarian,1340 nM
same,GI50,NCI-H226 lung,274 nM
same,GI50,UO-31 renal,84.5 nM
same,TGI,UO-31 renal,595 nM
same,GI50,XF 498 CNS,508 nM
same,TGI,XF 498 CNS,5070 nM
same,GI50,IGROV1 ovarian,272 nM
same,TGI,IGROV1 ovarian,2320 nM
same,GI50,SNB-19 CNS,59.4 nM
same,TGI,SNB-19 CNS,22200 nM
same,GI50,NCI-H23 lung,15.5 nM
same,TGI,NCI-H23 lung,175 nM
same,GI50,SR leukemia,< 10 nM
same,GI50,SK-MEL-2 melanoma,968 nM
same,TGI,SK-MEL-2 melanoma,2610 nM
same,GI50,786-0 renal,< 11.5 nM
same,TGI,786-0 renal,67.2 nM
same,GI50,HCT-15 colon,386 nM
same,TGI,HCT-15 colon,3710 nM
same,GI50,SF-295 CNS,10.1 nM
same,TGI,SF-295 CNS,263 nM
same,GI50,SK-MEL-28 melanoma,544 nM
same,TGI,SK-MEL-28 melanoma,8160 nM
same,GI50,KM20L2 colon,262 nM
same,TGI,KM20L2 colon,5950 nM
same,GI50,OVCAR-4 ovarian,574 nM
same,TGI,OVCAR-4 ovarian,3020 nM
same,GI50,DLD-1 colon,1540 nM
same,TGI,DLD-1 colon,> 100000 nM
same,GI50,LXFL 529 NSCLC,1430 nM
same,TGI,LXFL 529 NSCLC,8420 nM
same,GI50,HOP-62 NSCLC,< 10 nM
same,GI50,EKVX NSCLC,3030 nM
same,TGI,EKVX NSCLC,> 77500 nM
same,GI50,UACC-257 melanoma,293 nM
same,TGI,UACC-257 melanoma,2230 nM
same,GI50,SK-OV-3 ovarian,48.1 nM
same,TGI,SK-OV-3 ovarian,2490 nM
same,GI50,COLO 205 colon,529 nM
same,TGI,COLO 205 colon,2640 nM
same,GI50,NCI-H460 lung,< 10 nM
same,TGI,NCI-H460 lung,118 nM
same,GI50,HT29 colon,224 nM
same,TGI,HT29 colon,> 100000 nM
same,GI50,DMS 273 small cell lung,< 10 nM
same,TGI,DMS 273 small cell lung,377 nM
same,GI50,SNB-78 CNS,2200 nM
same,TGI,SNB-78 CNS,> 65300 nM
same,GI50,HOP-18 NSCLC,81.6 nM
same,TGI,HOP-18 NSCLC,1980 nM
same,GI50,MOLT-4 leukemia,< 10 nM
same,TGI,MOLT-4 leukemia,83.5 nM
same,GI50,RPMI-8226 leukemia,1380 nM
same,TGI,RPMI-8226 leukemia,14500 nM
same,GI50,TK-10 renal,3580 nM
same,TGI,TK-10 renal,55600 nM
same,TGI,M19-MEL melanoma,1600 nM
same,GI50,KM12 colon,514 nM
same,TGI,KM12 colon,6120 nM
same,GI50,SW-620 colon,171 nM
same,TGI,SW-620 colon,2550 nM
same,GI50,UACC-62 melanoma,< 10 nM
same,TGI,UACC-62 melanoma,134 nM
same,GI50,LOX IMVI melanoma,19.4 nM
same,TGI,LOX IMVI melanoma,183 nM
same,GI50,SNB-75 CNS,35 nM
same,TGI,SNB-75 CNS,405 nM
same,GI50,OVCAR-5 ovarian,64.9 nM
same,TGI,OVCAR-5 ovarian,629 nM
same,GI50,MALME-3M melanoma,374 nM
same,TGI,MALME-3M melanoma,3090 nM
same,GI50,SN12C renal,< 10 nM
same,TGI,SN12C renal,433 nM
same,GI50,K-562 leukemia,168 nM
same,TGI,K-562 leukemia,> 20400 nM
same,GI50,SF-268 CNS,17.7 nM
same,TGI,SF-268 CNS,> 31800 nM
same,GI50,HCT-116 colon,121 nM
same,TGI,HCT-116 colon,1500 nM
same,GI50,HCC-2998 colon,359 nM
same,TGI,HCC-2998 colon,2140 nM

# Reference: PubChem BioAssay (NCI)
